Measured values published in patent US20060247227A1, “Substituted piperidines as histamine h3 receptor ligands” (priority 2003, published 2006).
Where a name gives a salt, the structure may show the parent alone.

Target: T1, histamine H3 receptor (Homo sapiens, UniProt Q9Y5N1)
T1 construct: expressed in transfected cells; host or cells: CHO K1 cells carrying pSwitch, transfected with pGeneH3 and induced with mifepristone; clone 3H3; membranes
Assay: Histamine H3 functional antagonist assay ([35S]GTPγS, SPA, membranes of CHO K1 cells expressing the receptor)
Assay type: biochemical
Conditions: histamine-stimulated GTPγS binding, membranes with human H3
Description: A membrane preparation containing histamine H3 receptors may be prepared in accordance with the following procedures:
(i) Generation of Histamine H3 Cell Line
DNA encoding the human histamine H3 gene (Huvar, A. et al. (1999) Mol. Pharmacol. 55(6), 1101-1107) was cloned into a holding vector, pCDNA3.1 TOPO (InVitrogen) and its cDNA was isolated from this vector by restriction digestion of plasmid DNA with the enzymes BamH1 and Not-1 and ligated into the inducible expression vector pGene (InVitrogen) digested with the same enzymes. The GeneSwitch™ system (a system where in transgene expression is switched off in the absence of an inducer and switched on in the presence of an inducer) was performed as described in U.S. Pat. Nos. 5,364,791; 5,874,534; and 5,935,934. Ligated DNA was transformed into competent DH5α E. coli host bacterial cells and plated onto Luria Broth (LB) agar containing Zeocin™ (an antibiotic which allows the selection of cells expressing the sh ble gene which is present on pGene and pSwitch) at 50 μg ml^−1. Colonies containing the re-ligated plasmid were identified by restriction analysis. DNA for transfection into mammalian cells was prepared from 250 ml cultures of the host bacterium containing the pGeneH3 plasmid and isolated using a DNA preparation kit (Qiagen Midi-Prep) as per manufacturers guidelines (Qiagen).
CHO K1 cells previously transfected with the pSwitch regulatory plasmid (InVitrogen) were seeded at 2×10e6cells per T75 flask in Complete Medium, containing Hams F12 (GIBCOBRL, Life Technologies) medium supplemented with 10% v/v dialysed foetal bovine serum, L-glutamine, and hygromycin ([…]), 24 hours prior to use. Plasmid DNA was transfected into the cells using Lipofectamine plus according to the manufacturers guidelines (InVitrogen). 48 hours post transfection cells were placed into complete medium supplemented with […] Zeocin™.
10-14 days post selection 10 nM Mifepristone (InVitrogen), was added to the culture medium to induce the expression of the receptor. 18 hours post induction cells were detached from the flask using ethylenediamine tetra-acetic acid (EDTA; 1:5000; InVitrogen), following several washes with phosphate buffered saline pH 7.4and resuspended in Sorting Medium containing Minimum Essential Medium (MEM), without phenol red, and supplemented with Earles salts and 3% Foetal Clone II (Hyclone). Approximately 1×10e7 cells were examined for receptor expression by staining with a rabbit polyclonal antibody, 4a, raised against the N-terminal domain of the histamine H3 receptor, incubated on ice for 60 minutes, followed by two washes in sorting medium. Receptor bound antibody was detected by incubation of the cells for 60 minutes on ice with a goat anti rabbit antibody, conjugated with Alexa 488 fluorescence marker (Molecular Probes). Following two further washes with Sorting Medium, cells were filtered through a 50 μm Filcon™ (BD Biosciences) and then analysed on a FACS Vantage SE Flow Cytometer fitted with an Automatic Cell Deposition Unit. Control cells were non-induced cells treated in a similar manner. Positively stained cells were sorted as single cells into 96-well plates, containing Complete Medium containing 500 μg ml^−1 Zeocin™ and allowed to expand before reanalysis for receptor expression via antibody and ligand binding studies. One clone, 3H3, was selected for membrane preparation.
(ii) Membrane Preparation from Cultured Cells
All steps of the protocol are carried out at 4° C. and with pre-cooled reagents. The cell pellet is resuspended in 10 volumes of buffer A2 containing 50 mM N-2-hydroxyethylpiperazine-N′-2-ethanesulfonic acid (HEPES) (pH 7.40) supplemented with […] leupeptin (acetyl-leucyl-leucyl-arginal; Sigma L2884), 25 μg/ml bacitracin (Sigma B0125), 1 mM ethylenediamine tetra-acetic acid (EDTA), 1 mM phenylmethylsulfonyl fluoride (PMSF) and 2×10e-6M pepstain A (Sigma). […]

T1 sequence (Q9Y5N1 whole entry): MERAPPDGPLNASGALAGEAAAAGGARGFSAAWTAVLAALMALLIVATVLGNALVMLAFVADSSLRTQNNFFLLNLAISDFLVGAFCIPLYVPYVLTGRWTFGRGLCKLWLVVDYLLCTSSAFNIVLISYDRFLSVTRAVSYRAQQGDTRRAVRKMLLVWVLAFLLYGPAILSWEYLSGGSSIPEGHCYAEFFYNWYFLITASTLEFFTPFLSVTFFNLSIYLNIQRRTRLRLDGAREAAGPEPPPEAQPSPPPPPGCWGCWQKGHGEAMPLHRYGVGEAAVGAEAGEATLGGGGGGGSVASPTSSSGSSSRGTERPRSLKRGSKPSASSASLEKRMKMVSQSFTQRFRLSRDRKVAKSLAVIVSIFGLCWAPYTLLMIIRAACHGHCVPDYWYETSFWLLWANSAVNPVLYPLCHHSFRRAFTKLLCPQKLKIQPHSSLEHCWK

Which Ki does the source give for `O=C(c1ccc(N2CCC(OC3CCN(C4CCC4)CC3)CC2)cn1)N1CCCCC1` [Example E35] here?
The Ki was at most 1 nM.

With `CC(=O)c1ccc(N2CCC(OC3CCN(C4CCC4)CC3)CC2)cn1` [Example E111, 1-(5-{4-[(1-Cyclobutyl-4-piperidinyl)oxy]-1-piperidinyl}-2-pyridinyl)ethanone] as the compound, how does the Ki read?
Its Ki is at most 1 nM.

With `FC(F)(F)c1cnc(N2CCC(OC3CCN(C4CCC4)CC3)CC2)cn1` [Example E84, 2-{4-[(1-Cyclobutyl-4-piperidinyl)oxy]-1-piperidinyl}-5-(trifluoromethyl)pyrazine hydrochloride] as the compound, how does the Ki read?
Its Ki is at most 1 nM.

For `CC(=O)c1ccc(N2CCC(OC3CCN(CC4CC4)CC3)CC2)cc1` [Example E103, 1-[4-(4-{[1-(Cyclopropylmethyl)-4-piperidinyl]oxy}-1-piperidinyl)phenyl]ethanone], which Ki is on record?
Its Ki is under 10 nM.

How did the Ki turn out when `CCNC(=O)c1cnc(N2CCC(OC3CCN(C(C)C)CC3)CC2)cn1` [Example E76] was run?
The Ki was at most 1 nM.

How did the Ki turn out when `CC(C)NC(=O)c1cnc(N2CCC(OC3CCN(C4CCC4)CC3)CC2)cn1` [Example E73] was run?
Its Ki is at most 1 nM.

For `CC(C)N1CCC(OC2CCN(c3ccc(C(=O)NCCCCl)nc3)CC2)CC1` [Example E108, N (3-Chloropropyl)-5-(4-{[1-(1-methylethyl)-4-piperidinyl]oxy}-1-piperidinyl)-2-pyridinecarboxamide hydrochloride], which Ki is on record?
The Ki was at most 1 nM.

Which Ki does the source give for `FC(F)(F)c1ncc(N2CCC(OC3CCN(C4CCC4)CC3)CC2)cn1` [Example E88, 5-{4-[(1-Cyclobutyl-4-piperidinyl)oxy]-1-piperidinyl}-2-(trifluoromethyl)pyrimidine] here?
The Ki was under 0.316 nM.

With `c1ccc(-c2nnc(-c3ccc(N4CCC(OC5CCN(C6CCC6)CC5)CC4)cc3)o2)cc1` [Example E27] as the compound, how does the Ki read?
Its Ki is at most 1 nM.

Which Ki does the source give for `CC(=O)c1ccc(N2CCC(OC3CCN(C4CCC4)CC3)CC2)cc1` [Example E48, 1-(4-{4-[(1-Cyclobutyl-4-piperidinyl)oxy]-1-piperidinyl}phenyl)ethanone hydrochloride] here?
The Ki was under 0.316 nM.

For `CNC(=O)c1ccc(N2CCC(OC3CCN(C(C)C)CC3)CC2)cc1` [Example E14], which Ki is on record?
The Ki was under 10 nM.

With `CC(=O)Nc1ccc(N2CCC(OC3CCN(C4CCC4)CC3)CC2)cc1F` [Example E98, N-(4-{4-[(1-Cyclobutyl-4-piperidinyl)oxy]-1-piperidinyl}-2-fluorophenyl)acetamide hydrochloride] as the compound, how does the Ki read?
Its Ki is at most 1 nM.

With `CNC(=O)c1cccc(N2CCC(OC3CCN(C(C)C)CC3)CC2)n1` [Example E58] as the compound, how does the Ki read?
The Ki was under 10 nM.

For `Cc1ncc(-c2ccc(N3CCC(OC4CCN(C5CCC5)CC4)CC3)cc2)o1` [Example E22], which Ki is on record?
The Ki was at most 1 nM.

How did the Ki turn out when `CC[C@@H](C)N1CCC(OC2CCN(c3ccc(C(C)=O)cc3)CC2)CC1` [Example E102] was run?
Its Ki is at most 1 nM.

Which Ki does the source give for `CC(C)N1CCC(OC2CCN(c3ccc(C(=O)N(C)C)cn3)CC2)CC1` [Example E51] here?
Its Ki is under 10 nM.

Which Ki does the source give for `CC(C)N1CCC(OC2CCN(c3ccc(C#N)cc3)CC2)CC1` [Example E4, 4-(4-{[1-(1-Methylethyl)-4-piperidinyl]oxy}-1-piperidinyl)benzonitrile hydrochloride] here?
The Ki was at most 1 nM.

How did the Ki turn out when `O=C(c1cc(N2CCC(OC3CCN(C4CCC4)CC3)CC2)ccn1)N1CCCCC1` [Example E69] was run?
The Ki was under 10 nM.

`O=C(c1ccc(N2CCC(OC3CCN(C4CCC4)CC3)CC2)cc1)N1CCCC1` [Example E11] was tested. Which Ki did it give?
The Ki was at most 1 nM.

Which Ki does the source give for `FC(F)(F)c1ccc(N2CCC(OC3CCN(C4CCC4)CC3)CC2)nn1` [Example E82, 3-{4-[(1-Cyclobutyl-4-piperidinyl)oxy]-1-piperidinyl}-6-(trifluoromethyl)pyridazine hydrochloride] here?
The Ki was under 0.316 nM.

With `O=C(c1cccc(N2CCC(OC3CCN(C4CCC4)CC3)CC2)n1)N1CCOCC1` [Example E65] as the compound, how does the Ki read?
The Ki was under 10 nM.

Which Ki does the source give for `CC(C)N1CCC(OC2CCN(c3ccc(C(=O)N4CCCCC4)nc3)CC2)CC1` [Example E34] here?
Its Ki is at most 1 nM.

With `N#Cc1ccc(N2CCC(OC3CCN(C4CCC4)CC3)CC2)nc1` [Example E2, 6-{4-[(1-Cyclobutyl-4-piperidinyl)oxy]-1-piperidinyl}-3-pyridinecarbonitrile hydrochloride] as the compound, how does the Ki read?
Its Ki is at most 1 nM.

With `CC(C)N1CCC(OC2CCN(c3ccc(C(F)(F)F)nc3)CC2)CC1` [Example E81, 5-{4-[(1-Methylethyl-4-piperidinyl)oxy]-1-piperidinyl}-2-(trifluoromethyl)pyridine hydrochloride] as the compound, how does the Ki read?
The Ki was at most 1 nM.

Which Ki does the source give for `CCCNC(=O)c1cnc(N2CCC(OC3CCN(C4CCC4)CC3)CC2)cn1` [Example E72] here?
Its Ki is at most 1 nM.

Which Ki does the source give for `O=C(c1cccc(N2CCC(OC3CCN(C4CCC4)CC3)CC2)n1)N1CCCC1` [Example E64] here?
The Ki was under 10 nM.

For `CCCNC(=O)c1ccc(N2CCC(OC3CCN(C(C)C)CC3)CC2)cn1` [Example E41], which Ki is on record?
The Ki was at most 1 nM.

For `CC[C@H](C)N1CCC(OC2CCN(c3ccc(C(C)=O)cc3)CC2)CC1` [Example E101], which Ki is on record?
Its Ki is at most 1 nM.

`O=C(NCCCCl)c1ccc(N2CCC(OC3CCN(C4CCC4)CC3)CC2)cn1` [Example E107, N-(3-Chloropropyl)-5-{4-[(1-cyclobutyl-4-piperidinyl)oxy]-1-piperidinyl}-2-pyridinecarboxamide hydrochloride] was tested. Which Ki did it give?
The Ki was at most 1 nM.

For `CC(C)N1CCC(OC2CCN(c3ccc(-c4ncco4)cc3)CC2)CC1` [Example E19], which Ki is on record?
The Ki was under 10 nM.

For `CC(C)N1CCC(OC2CCN(c3ccc(C#N)cn3)CC2)CC1` [Example E1, 6-(4-([1-(1-Methylethyl)-4-piperidinyl]oxy}-1-piperidinyl)-3-pyridinecarbonitrile hydrochloride], which Ki is on record?
Its Ki is under 10 nM.

Which Ki does the source give for `CN(C)C(=O)c1cccc(N2CCC(OC3CCN(C4CCC4)CC3)CC2)n1` [Example E63] here?
The Ki was under 10 nM.

With `CC(C)NC(=O)c1cnc(N2CCC(OC3CCN(C(C)C)CC3)CC2)cn1` [Example E78] as the compound, how does the Ki read?
Its Ki is at most 1 nM.

For `CC(C)N1CCC(OC2CCN(c3ccc(C(=O)NC4CCC4)nc3)CC2)CC1` [Example E105, N-Cyclobutyl-5-(4-{[1-(1-methylethyl)-4-piperidinyl]oxy}-1-piperidinyl)-2-pyridinecarboxamide], which Ki is on record?
Its Ki is at most 1 nM.

`CC(C)N1CCC(OC2CCN(c3ccc(-c4nnc(-c5ccccc5)o4)cc3)CC2)CC1` [Example E26] was tested. Which Ki did it give?
Its Ki is at most 1 nM.

How did the Ki turn out when `CC(C)NC(=O)c1cc(N2CCC(OC3CCN(C4CCC4)CC3)CC2)ccn1` [Example E67] was run?
Its Ki is under 10 nM.

Which Ki does the source give for `CN(C)C(=O)c1ccc(N2CCC(OC3CCN(C4CCC4)CC3)CC2)cc1` [Example E13] here?
The Ki was at most 1 nM.

How did the Ki turn out when `CC(C)N1CCC(OC2CCN(c3ccc(C(=O)N(C)C)nc3)CC2)CC1` [Example E32] was run?
The Ki was at most 1 nM.

`Cc1nc(-c2ccc(N3CCC(OC4CCN(C5CCC5)CC4)CC3)cc2)co1` [Example E16, 1-Cyclobutyl-4-({1-[4-(2-methyl-1,3-oxazol-4-yl)phenyl]-4-piperidinyl}oxy)piperidine hydrochloride] was tested. Which Ki did it give?
The Ki was at most 1 nM.

`Cc1noc(-c2ccc(N3CCC(OC4CCN(C(C)C)CC4)CC3)cc2)n1` [Example E17, 1-(1-Methylethyl)-4-({1-[4-(3-methyl-1,2,4-oxadiazol-5-yl)phenyl]-4-piperidinyl}oxy)piperidine hydrochloride] was tested. Which Ki did it give?
Its Ki is under 0.316 nM.

Which Ki does the source give for `CC(C)N1CCC(OC2CCN(c3ccc(C(=O)NCCCCl)cc3)CC2)CC1` [Example E106, N-(3-Chloropropyl)-4-(4-{[1-(1-methylethyl)-4-piperidinyl]oxy}-1-piperidinyl)benzamide hydrochloride] here?
The Ki was at most 1 nM.

`CNC(=O)c1cccc(N2CCC(OC3CCN(C4CCC4)CC3)CC2)n1` [Example E62] was tested. Which Ki did it give?
Its Ki is at most 1 nM.
